The record followed here is patent US8680139B2 (Progenra, priority 2009, dated 2014).

Structures are written as SMILES.

The target in data set [1] is T1, USP7 (Homo sapiens, UniProt Q93009).
T1 construct: full length human USP7 protein; made in house
Kind of data set: USP7, Ub-PLA2 assay. The settings on record: for USP7 inhibition, result in words: USP7, Ub-PLA2 assay; for EC50: Ub-PLA2 / NBD C6-HPC fluorescence, 30 minute preincubation, read-out: EC50 for inhibition of USP7. It counts as biochemical. An outline of the steps:
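Compounds tested against USP7 with DMSO vehicle control and NEM-treated wells as background. Fluorescence (RFU) read-out; % inhibition normalized per plate to mean DMSO and NEM controls.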

The nature of data set [2]: HCT-116 Cellular Cytotoxicity Assay. The settings on record: human, HCT-116 cells, pH 7.2.
Description: The purpose of this assay is to determine if any of the synthesized compounds are cytotoxic against HCT-116 cells, as measured by resazurin metabolism. Resazurin is metabolized only by living cells from a non-fluorescent molecule into Resorufin, a highly red fluorescent dye. […] The cells were cultured in an incubator at 37° C. in 5% CO2 and 95% humidified air. […] The final concentration DMSO was 0.5% (v/v) in all samples. The plates were returned to the incubator for 72 hours. Following 72 hours of test compound exposure, 10 μL of 0.2 mg/mL Resazurin (Sigma) in phosphate buffered saline was added to each well and the plate was returned to the incubator for 3-6 hours. Since living cells metabolize Resazurin, the fluorescence of the reduction product of Resazurin was measured using a microplate fluorometer with λex=531 nm and λem=590 nm filters. Resazurin dye in medium without cells was used to determine the background, which was subtracted from the data for all experimental wells.

T1 sequence (Q93009 whole entry): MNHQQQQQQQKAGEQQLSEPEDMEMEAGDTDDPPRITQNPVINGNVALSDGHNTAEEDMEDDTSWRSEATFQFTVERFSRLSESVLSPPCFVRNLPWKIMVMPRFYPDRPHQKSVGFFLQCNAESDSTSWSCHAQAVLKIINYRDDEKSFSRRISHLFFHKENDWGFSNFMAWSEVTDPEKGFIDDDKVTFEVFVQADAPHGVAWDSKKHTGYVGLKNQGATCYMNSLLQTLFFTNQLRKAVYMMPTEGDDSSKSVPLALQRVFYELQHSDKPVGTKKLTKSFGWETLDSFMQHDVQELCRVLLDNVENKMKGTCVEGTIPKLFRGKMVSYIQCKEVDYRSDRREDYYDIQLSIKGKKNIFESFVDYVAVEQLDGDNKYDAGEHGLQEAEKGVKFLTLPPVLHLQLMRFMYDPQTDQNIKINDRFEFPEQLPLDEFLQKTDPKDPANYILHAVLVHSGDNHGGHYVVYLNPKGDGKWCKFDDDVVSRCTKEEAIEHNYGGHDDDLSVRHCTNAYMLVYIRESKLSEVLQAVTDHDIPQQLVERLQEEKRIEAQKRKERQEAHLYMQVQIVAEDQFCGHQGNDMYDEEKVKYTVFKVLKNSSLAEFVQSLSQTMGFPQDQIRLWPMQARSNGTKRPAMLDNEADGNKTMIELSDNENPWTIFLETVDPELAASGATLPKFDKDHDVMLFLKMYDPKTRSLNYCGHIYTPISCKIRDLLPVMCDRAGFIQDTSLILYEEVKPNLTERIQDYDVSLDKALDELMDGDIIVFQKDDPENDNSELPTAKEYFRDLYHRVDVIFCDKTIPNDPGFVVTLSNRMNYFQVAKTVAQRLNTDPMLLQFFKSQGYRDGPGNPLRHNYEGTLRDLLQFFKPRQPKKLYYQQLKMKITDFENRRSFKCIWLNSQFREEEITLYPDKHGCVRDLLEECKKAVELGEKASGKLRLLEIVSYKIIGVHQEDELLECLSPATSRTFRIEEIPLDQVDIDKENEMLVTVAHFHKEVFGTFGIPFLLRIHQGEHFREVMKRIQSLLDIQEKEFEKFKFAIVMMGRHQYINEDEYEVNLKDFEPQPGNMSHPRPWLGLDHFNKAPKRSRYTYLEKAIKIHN

Take `O=C(Nc1cnc2ccccc2c1)c1cc([N+](=O)[O-])c(Sc2c(Cl)cncc2Cl)s1` [Example 173, 5-((3,5-dichloropyridin-4-yl)thio)-4-nitro-N-(quinolin-3-yl)thiophene-2-carboxamide]: in data set [1], the “USP7 inhibition, result in words” value was “Particularly good results” and the EC50 (commonly the midpoint of the concentration-response curve) was ≤ 1 µM. In addition, the EC50 at 72 h in data set [2] came to 5.15 µM.

`CN(C)CCCOc1ccc(NC(=O)c2cc([N+](=O)[O-])c(Sc3c(Cl)cncc3Cl)s2)cc1` [Example 193, 5-[(3,5-dichloro-4-pyridyl)sulfanyl]-N-[4-(3-dimethylaminopropoxy)phenyl]-4-nitro-thiophene-2-carboxamide]: in data set [1], the “USP7 inhibition, result in words” value was “Particularly good results” and the EC50 was ≤ 1 µM. In data set [2], the EC50 at 72 h stood at 3.37 µM.

As to `CN(C)CCC(=O)c1cc([N+](=O)[O-])c(Sc2ccc(Cl)cc2Cl)s1` [Example 24, 1-[5-(2,4-dichlorophenyl)sulfanyl-4-nitro-2-thienyl]-3-dimethylamino-propan-1-one], the EC50 in data set [1] was in the range of 1 to 10 µM. The EC50 at 72 h in data set [2] is 27.3 µM.

In the case of `CC(=O)c1cc([N+](=O)[O-])c(Sc2ccc(Cl)c(Cl)c2)s1` [Example 8, 1-[5-(3,4-Dichlorophenylsulfanyl)-4-nitro-2-thienyl]ethanone], the EC50 in data set [1] lay in the range of 1 to 10 µM. This molecule registered an EC50 at 72 h in data set [2] of 14.8 µM.

For `CN1CCC(NC(=O)c2cc(C#N)c(Sc3c(Cl)cncc3Cl)s2)CC1` [Example 203, 4-cyano-5-((3,5-dichloropyridin-4-yl)thio)-N-(1-methylpiperidin-4-yl)thiophene-2-carboxamide], the EC50 in data set [1] was in the range of 1 to 10 µM. Moreover, the EC50 at 72 h in data set [2] was 10.4 µM.

On to `CN1C(C)(C)CC(NC(=O)c2cc([N+](=O)[O-])c(Sc3c(Cl)cncc3Cl)s2)CC1(C)C` [Example 188, 5-((3,5-dichloropyridin-4-yl)thio)-4-nitro-N-(1,2,2,6,6-pentamethylpiperidin-4-yl)thiophene-2-carboxamide], for which the EC50 in data set [1] was ≤ 1 µM. In data set [2], the 50% effective concentration (EC50) at 72 h amounted to 7.9 µM.

As to `CS(=O)(=O)c1ccc(NC(=O)c2cc([N+](=O)[O-])c(Sc3c(Cl)cncc3Cl)s2)cc1` [Example 129, 5-((3,5-dichloropyridin-4-yl)thio)-N-(4-(methylsulfonyl)phenyl)-4-nitrothiophene-2-carboxamide], in data set [1], the “USP7 inhibition, result in words” value was “Particularly good results” and the EC50 was ≤ 1 µM. In data set [2], this molecule showed an EC50 at 72 h of 5.89 µM.

`NS(=O)(=O)c1ccc(NC(=O)c2cc([N+](=O)[O-])c(Sc3c(Cl)cncc3Cl)s2)cc1` [Example 160, 5-((3,5-dichloropyridin-4-yl)thio)-4-nitro-N-(4-sulfamoylphenyl)thiophene-2-carboxamide]: in data set [1], the EC50 is ≤ 1 µM. Further, the concentration giving a half-maximal response (EC50) at 72 h in data set [2] was determined as 6.17 µM.

With `COc1ccc(NC(=O)c2cc([N+](=O)[O-])c(Sc3c(Cl)cncc3Cl)s2)cn1` [Example 175, 5-((3,5-dichloropyridin-4-yl)thio)-N-(6-methoxypyridin-3-yl)-4-nitrothiophene-2-carboxamide], the EC50 in data set [1] was ≤ 1 µM. Also, in data set [2], a half-maximal effect (EC50 at 72 h) was put at 7.23 µM.

As to `O=C(Nc1ccon1)c1cc([N+](=O)[O-])c(Sc2c(Cl)cncc2Cl)s1` [Example 171, 5-((3,5-dichloropyridin-4-yl)thio)-N-(isoxazol-3-yl)-4-nitrothiophene-2-carboxamide], the EC50 in data set [1] was ≤ 1 µM. In data set [2], this molecule showed an EC50 at 72 h of 10.9 µM.

For `CC(=O)c1cc([N+](=O)[O-])c(Oc2ccc(Cl)cc2Cl)s1` [Example 271, 1-(5-(2,4-dichlorophenoxy)-4-nitrothiophen-2-yl)ethanone], in data set [1], the EC50 was in the range of 1 to 10 µM. This molecule displayed an EC50 at 72 h in data set [2] of 8.54 µM.

Regarding `COc1ccc(NC(=O)c2cc([N+](=O)[O-])c(Sc3c(Cl)cncc3Cl)s2)cc1` [Example 155, 5-((3,5-dichloropyridin-4-yl)thio)-N-(4-methoxyphenyl)-4-nitrothiophene-2-carboxamide], in data set [1], the “USP7 inhibition, result in words” value is listed as “Particularly good results” and the EC50 was ≤ 1 µM. The molecule also came in with a concentration for a half-maximal effect (EC50) at 72 h in data set [2] of 5.49 µM.

For the molecule `CC(=O)c1cc([N+](=O)[O-])c(Sc2c(Cl)cccc2Cl)s1` [Example 7, 1-[5-(2,6-Dichlorophenylsulfanyl)-4-nitro-2-thienyl]ethanone], the EC50 in data set [1] fell in the range of 1 to 10 µM. The molecule also had an EC50 at 72 h in data set [2] of 30.6 µM.

For the molecule `O=C(Nc1ccc(N2CCOCC2)cc1)c1cc([N+](=O)[O-])c(Sc2c(Cl)cncc2Cl)s1` [Example 157, 5-((3,5-dichloropyridin-4-yl)thio)-N-(4-morpholinophenyl)-4-nitrothiophene-2-carboxamide], in data set [1], the EC50 was ≤ 1 µM. In addition, a half-maximal effect in data set [2] (EC50 at 72 h) was put at 27.3 µM.

With `CN(C)CCC(O)c1cc([N+](=O)[O-])c(Sc2ccc(Cl)cc2Cl)s1` (stereo not shown) [Example 25, 1-[5-(2,4-dichlorophenyl)sulfanyl-4-nitro-2-thienyl]-3-dimethylamino-propan-1-ol], the EC50 in data set [1] fell in the range of 1 to 10 µM. Also, in data set [2], a half-maximal response (EC50 at 72 h) required 15.2 µM.

Regarding `O=C(Nc1nccs1)c1cc([N+](=O)[O-])c(Sc2c(Cl)cncc2Cl)s1` [Example 172, 5-((3,5-dichloropyridin-4-yl)thio)-4-nitro-N-(thiazol-2-yl)thiophene-2-carboxamide], the EC50 in data set [1] is ≤ 1 µM. The molecule also yielded an EC50 at 72 h in data set [2] of 12.9 µM.

Take `O=C(Nc1cc(C2CC2)n[nH]1)c1cc([N+](=O)[O-])c(Sc2c(Cl)cncc2Cl)s1` [Example 123, N-(3-cyclopropyl-1H-pyrazol-5-yl)-5-((3,5-dichloropyridin-4-yl)thio)-4-nitrothiophene-2-carboxamide]: in data set [1], the “USP7 inhibition, result in words” value was “Particularly good results” and the EC50 is ≤ 1 µM. The molecule also returned an EC50 at 72 h in data set [2] of 11 µM.

Regarding `CC(=O)c1cc([N+](=O)[O-])c(Sc2ccc(Cl)cc2Cl)s1` [Example 2, 1-[5-(2,4-Dichlorophenylsulfanyl)-4-nitro-2-thienyl]ethanone], in data set [1], the EC50 was in the range of 1 to 10 µM. Moreover, in data set [2], the midpoint of the response, the EC50 at 72 h, lay at 16.1 µM.

Regarding `COc1cc(NC(=O)c2cc(C#N)c(Sc3c(Cl)cncc3Cl)s2)ccc1OCCCN(C)C` [Example 205, 4-cyano-5-((3,5-dichloropyridin-4-yl)thio)-N-(4-(3-(dimethylamino)propoxy)-3-methoxyphenyl)thiophene-2-carboxamide], the EC50 in data set [1] was ≤ 1 µM. The molecule also showed an EC50 at 72 h in data set [2] of 3.1 µM.

Regarding `CC(=O)c1cc([N+](=O)[O-])c(Sc2cc(Cl)cc(Cl)c2)s1` [Example 9, 1-[5-(3,5-Dichlorophenylsulfanyl)-4-nitro-2-thienyl]ethanone], the EC50 in data set [1] fell in the range of 1 to 10 µM. Further, the EC50 at 72 h in data set [2] worked out at 8.13 µM.

Consider `O=C(Nc1cccc2cnccc12)c1cc([N+](=O)[O-])c(Sc2c(Cl)cncc2Cl)s1` [Example 179, 5-((3,5-dichloropyridin-4-yl)thio)-N-(isoquinolin-5-yl)-4-nitrothiophene-2-carboxamide], for which, in data set [1], the EC50 is ≤ 1 µM. Besides, the EC50 at 72 h in data set [2] is 4.23 µM.

As to `Cc1cc(NC(=O)c2cc([N+](=O)[O-])c(Sc3c(Cl)cncc3Cl)s2)n(CCN(C)C)n1` [Example 182, 5-((3,5-dichloropyridin-4-yl)thio)-N-(1-(2-(dimethylamino)ethyl)-3-methyl-1H-pyrazol-5-yl)-4-nitrothiophene-2-carboxamide], the EC50 in data set [1] is ≤ 1 µM. In data set [2], this molecule showed an EC50 at 72 h of 14.3 µM.
